Experimental data taken from patent US10159249B2 (BAYER CROPSCIENCE AKTIENGESELLSCHAFT, priority 2013, dated 2018).

What was measured:
Euphorbia heterophylla = experiment: Field trial, weed efficacy, post applied; type: in vivo; conditions: Atrazine 1000 g ai/ha; application at 5 leaf stage; assessment 14 days after application
PfHPPDEvo40 = PfHPPDEvo40 (Pseudomonas sp., UniProt P80064, A172V/A339E/A53E/D148E/D45N/E105D/E287Q/E300V/E334P/F143Y/G286D/G335S/H150N/H254A/H63N/I158V/I187A/I249V/K92N/L18F/N24G/N280D/S245T/S257K/S301E/T205S/V65I); experiment: Brown color assay, HPPD inhibitor tolerance of E. coli HPPD extracts; conditions: extract titrated on 250 uM inhibitor; brown pigment formation
Chain of PfHPPDEvo40 (P80064 other isoform, or with tags, fused parts or gaps with the stated changes): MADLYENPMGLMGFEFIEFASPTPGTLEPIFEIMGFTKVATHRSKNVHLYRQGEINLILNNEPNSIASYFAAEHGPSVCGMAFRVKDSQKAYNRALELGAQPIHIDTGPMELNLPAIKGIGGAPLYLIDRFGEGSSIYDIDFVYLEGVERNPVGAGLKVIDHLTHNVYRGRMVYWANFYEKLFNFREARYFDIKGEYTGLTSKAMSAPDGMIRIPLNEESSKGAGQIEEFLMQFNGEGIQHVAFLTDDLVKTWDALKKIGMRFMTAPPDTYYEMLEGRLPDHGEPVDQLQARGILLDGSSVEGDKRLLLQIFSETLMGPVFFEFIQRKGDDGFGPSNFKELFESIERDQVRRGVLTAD

Amaranthus retroflexus = conditions: Glufosinate-ammonium 500 g ai/ha; application at 6 leaf stage; assessment 14 days after application
[1] = test system: Ipomoea aristolochiaefolia; conditions: Glyphosate 960 g ai/ha; application at 6 leaf stage; assessment 14 days after application
Digitaria horizontalis = experiment: Field trial, weed efficacy, post applied; type: in vivo; conditions: application at 2 tillers, assessment 14 days after application

CCNc1nc(Cl)nc(NC(C)C)n1 [Atrazine, reference compound]
Efficacy (%) Euphorbia heterophylla (Euphorbia heterophylla): 74%

CS(=O)(=O)c1cc(C(F)(F)F)ccc1C(=O)C(C#N)C(=O)C1CC1 (stereo not shown) [DKN, diketonitrile]
tolerance of variant PfHPPDEvo40 to the inhibitor compared to PfHPPD336W (PfHPPDEvo40): improved tolerance

CP(=O)(O)CCC(N)C(=O)O (stereo not shown) [Glufosinate-ammonium, reference compound]
Efficacy (%) Amaranthus retroflexus (Amaranthus retroflexus): 33%

O=C(O)CNCP(=O)(O)O [Glyphosate, reference compound]
Efficacy (%) Ipomoea aristolochiaefolia [1]: 70%

CSc1nnc(C(C)(C)C)c(=O)n1N [Metribuzin]
Efficacy (%) Digitaria horizontalis (Digitaria horizontalis; Metribuzin 240 g ai/ha): 15% | Efficacy (%) Digitaria horizontalis (Digitaria horizontalis; Metribuzin 480 g ai/ha): 35%

CS(=O)(=O)c1ccc(C(=O)C2C(=O)CCCC2=O)c(Cl)c1COCC(F)(F)F [TBT, tembotrione]
tolerance of variant PfHPPDEvo40 to the inhibitor compared to PfHPPD336W (PfHPPDEvo40): improved tolerance
